The source of these data is US6459001B1 (Aventis Pharma S.A., priority 1997, dated 2002).

The target of one test is human αvβ3 receptor (Homo sapiens, UniProt P05106+P06756). Kind of test: Displacement of the binding Vitronectin/Vitronectin receptor (αvβ3), competition test. Particulars: human vitronectin coated plates, 3 hours at ambient temperature, read-out: Competition test Vn/VR (αvβ3) binding IC50 en. As to the method:
1—Study of the Products of the Invention on the Displacement of the Binding: Vitronectin/Vitronectin Receptor (αvβ3) […]
MaxiSorp 96-well plates are coated overnight at 4° C., with 100 μl of human Vitronectin (cf Yatohgo et al. Cell., Structure and fraction 13: 281-292 (1988)) at 2 μg/ml, (Dilution in coating buffer).
The next day, the wells are emptied and the ligands (Vitronectin) are then fixed (see fixing buffer) for one hour at ambient temperature under gentle agitation.
The wells are washed six times (see washing buffer), then the following are added to each well and in this order:
40 μl of incubation buffer, 10 μl of the dilution of the product to be tested, (the products are diluted in a 50/50 mixture of DMSO-H2O) 50 μl of human αvβ3 receptor (cf Pytela et al. Methods Enzymol (1987) 144:475) (dilution in incubation buffer, to be adapted according to the receptor batch and according to the ligand).
The ligand, the human αvβ3 receptor and the products to be studied are incubated for 3 hours at ambient temperature under gentle agitation.
The wells are again washed six times, then incubated for 2 hours at ambient temperature under gentle agitation, in the presence of 100 μl of anti-receptor, 4B12-HRP antibody coupled to a peroxidase (the 4B12-HRP antibody is diluted in an incubation buffer. The dilution is to be adapted according to the receptor batch).
This kit contains a bottle A of substrate (3,3′,5,5′-tetramethylbenzidine at 0.4 g/l) and a bottle B (H2O2 at 0.02% in a citrate/citric acid buffer). Extemporaneously, a volume of A is mixed with a volume of B, then the reaction mixture is distributed at a rate of 100 μl/well. The enzymatic reaction develops over […] for Vitronectin/αvβ3, then its development is stopped by the addition of 100 μl of 1M phosphoric acid. The optical density is measured at 450 nm. […]
coating buffer: Carbonate 0.05 M, NaOH pH 9.6 fixing buffer: PBS containing 0.5% BSA (pH 7.4) washing buffer: PBS containing 0.05% Tween 20 (pH 7.4)
Expression of the Results:
The following curve is traced: the percentage of binding of the human vitronectin as a function of the logarithm of the concentration of each product tested.
For each product the IC50 is determined according to the following formula:
BO=Maximum binding in the absence of any product
Bmin=Minimum binding in the presence of the highest concentration of product.

In test [1] the test system is bone resorption (skullcaps of new-born mice). As to the kind of experiment: Test of mouse calvarium: bone resorption by release of 45Ca from skullcaps of new-born mice, ex-vivo. Particulars: Mus musculus, inhibition of bone resorption (45Ca release) in half-calvaria, 48 hours contact, read-out: Mouse cavarium % inhibition at 10 μM. The text has this:
2—Test of Mouse Calvarium
Injection of a tracer dose of ^45Ca (CaCl2) to gestating female mice in order to study bone resorption by measuring the release of ^45Ca from the skullcaps of new-born mice.
Determination of the activity of a molecule on bone resorption, ex-vivo study.
Vehicle: DMSO, H2O/BSA (0.1%)
Dose: Variable ([…] in screening).
Echistatin (ref. H-9010-BACHEM)
^45Ca in the form of an aqueous solution of CaCl2—ref. CES3 AMERSHAM or NEZ-013 NEN.
Vehicle: Physiological serum
Dose: 25 μCi/mouse/0.4 ml
CMRL 1066 with phenol red (ref. 041-01535 M/GIBCO) supplemented by 0.1% BSA and penicillin/streptomycin.
1) Injection of ^45Ca to Gestating Mice (OF1, Strain: Swiss)
a) Preparation of the Labelled Solution:
190 μl of the mother solution of calcium at 2 mci/ml is added to 6 ml of physiological serum.
On the 17th day of gestation the mice receive 400 μl of this solution by intravenous route, that is 25 μCi/mouse.
2) Removal of the Tissue (Skullcap (Calvarium))
Six days after their birth the new-born mice are decapitated, then the head is recovered, and the skin is incised from the nape to the front. The skullcap is removed by cutting it out with scissors, and using a punch two exactly identical half-calvaria (one on the left and one on the right) are cut from the parietal bones. One will serve as the control, the other will be used to test the product to be studied.
Each half calvarium is placed in a well of a 24-well plate, containing 1 ml of medium, on a 100 μm polyethylene and nylex support, in order to avoid all contact with the bottom of the well.
After 24 hours, the polyethylene supports carrying the calvaria are transferred into new 24-well plates containing 1 ml of fresh medium and the products to be tested or their solvents. 200 μl of medium from the first plates is removed from each well and a first count of the radioactivity is carried out (value A).
This change of medium allows all the mechanical stress associated with the removal to be eliminated.
48 hours after putting the tissues in contact with the studied products, 200 μl of medium is removed from each well and counted (value B), so as to determine the quantity of ^45Ca released from the medium during the so-called resorption phase.
The calvarium is then completely demineralized in 1 ml of 5% trichloracetic acid and after digestion, 200 μl is also removed and counted so as to determine the quantity of calcium remaining in the bone (value C). Expression of the results
A % of bone resorption is calculated for each half-calvarium (each well) in the following manner:
% bone resorption=dpm B/dpm (A+B+C)×100
The sum of dpm A+B+C represents the quantity of ^45Ca incorporated in each bone part on the day of removal.
In order to measure the effect of a product, the ratio of the percentage of bone resorption of the treated well and of the corresponding control well is calculated for each point. The value found called the resorption index is comprised between 0 and 1 if the product inhibits bone resorption and is >1 if the product potentializes it. The average of the 6 indices (since there are 6 points/group) of each product is then calculated which gives one index/product. If this index is subtracted from the value 1, the inhibitory power of the product is obtained, which can be expressed as a percentage.
Furthermore a statistical test (Student T-test) is carried out by comparing point/point the individual resorption indices.

The inhibition is the drop in the measured response relative to a control, in per cent.

With `COc1c(OCCCC(=O)O)cc2c(c1OC)C1=C(CCC1)C(=NNC1=NCCCN1)CC2` [EX. 12, 4-((9,10-Dimethoxy-4-((1,4,5,6-tetrahydro-2-pyrimidinyl)hydrazono)-1,2,3,4,5,6-hexahydro-8-benz(e)-azulenyl)oxy)-butanoic Acid], the IC50 on human αvβ3 receptor was found to be 350 nM. Besides, the inhibition at 10 µM in test [1] turned out to be 12%.

`COc1c(OCCC(=O)O)cc2c(c1OC)C1=C(CCC1)C(=NNC1=NCCN1)CC2` [EX. 14, 3-(4((4,5-Dihydro-1H-imidazolin-2-yl)hydrazono)-9,10-dimethoxy-1,2,3,4,5,6-hexahydro-8-benz(e)azulenyl)oxy)-propanoic Acid]: the IC50 at human αvβ3 receptor came to 750 nM. Moreover, in test [1], the inhibition at 10 µM stood at 14%.

As to `O=C(O)CCCOc1ccc2c(c1)C1=C(CCC1)C(=NNC1=NCCN1)CC2` [EX. 20, 4-((4((4,5-Dihydro-1H-imidazol-2-yl)hydrazono)-1,2,3,4,5,6-hexahydro-9-benz(e)azulenyl)oxy)-butanoic Acid], the IC50 on human αvβ3 receptor is 79 nM. Besides, the inhibition at 10 µM in test [1] amounted to 11%.
